Here are results for ten molecules from patent publication US12043632B2, “6-heteroaryloxy benzimidazoles and azabenzimidazoles as JAK2 inhibitors” (Ajax Therapeutics, Inc., priority 2020, dated 2024).

Where only a bound is given, the exact number is not on record here.

The target in the assay is T1, JAK2 (JH1domain-catalytic, Y1007F,Y1008F) kinase (Homo sapiens, UniProt O60674, Y1007F/Y1008F).
T1 construct: JAK2 (JH1domain-catalytic, Y1007F,Y1008F) kinase was expressed as N-terminal fusion; made in house; host or cells: transiently transfected HEK293 cells
T1 sequence (O60674 849-1124 Y1007F/Y1008F limits assumed): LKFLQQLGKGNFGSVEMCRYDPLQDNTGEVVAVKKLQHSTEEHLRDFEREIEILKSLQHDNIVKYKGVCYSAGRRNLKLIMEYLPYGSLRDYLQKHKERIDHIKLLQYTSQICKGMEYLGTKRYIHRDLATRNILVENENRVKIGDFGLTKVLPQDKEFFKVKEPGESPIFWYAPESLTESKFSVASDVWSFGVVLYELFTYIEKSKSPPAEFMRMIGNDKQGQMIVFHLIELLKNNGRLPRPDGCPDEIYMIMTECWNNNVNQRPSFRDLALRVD
Description: JAK2 JH1 Domain Binding Assay. As to conditions: qPCR readout. (Real-time PCR tracks product formation cycle by cycle.)
One may read the Kd as the equilibrium constant for the complex coming apart. With `Cn1cc(C2CC2)cc(Nc2nc3ncc(Oc4cnn5ccncc45)c(C(F)F)c3n2C)c1=O` [Example I-59, 5-cyclopropyl-3-((7-(difluoromethyl)-1-methyl-6-(pyrazolo[1,5-a]pyrazin-3-yloxy)-1H-imidazo[4,5-b]pyridin-2-yl)amino)-1-methylpyridin-2(1H)-one], the Kd was < 10 nM. Turning to `Cn1c(Nc2cc(C(C)(C)C)n(CCC#N)n2)nc2ncc(Oc3cnn4ccncc34)c(Cl)c21` [Example I-61, 3-(5-(tert-butyl)-3-((7-chloro-1-methyl-6-(pyrazolo[1,5-a]pyrazin-3-yloxy)-1H-imidazo[4,5-b]pyridin-2-yl)amino)-1H-pyrazol-1-yl)propanenitrile], the dissociation constant Kd was < 10 nM. Molecule `COc1c(Oc2cnn3ccncc23)cnc2nc(Nc3cc(C(C)(C)C)n([C@@H]4CCN(CCF)C4)n3)n(C)c12` [Example I-62, (R)—N-(5-(tert-butyl)-1-(1-(2-fluoroethyl)pyrrolidin-3-yl)-1H-pyrazol-3-yl)-7-methoxy-1-methyl-6-(pyrazolo[1,5-a]pyrazin-3-yloxy)-1H-imidazo[4,5-b]pyridin-2-amine] yielded a Kd of 10 to 50 nM. `Cn1c(Nc2cc(C(C)(C)C)n(CC#N)n2)nc2ncc(Oc3cnn4ccncc34)c(C(F)F)c21` [Example I-63, 2-(5-(tert-butyl)-3-((7-(difluoromethyl)-1-methyl-6-(pyrazolo[1,5-a]pyrazin-3-yloxy)-1H-imidazo[4,5-b]pyridin-2-yl)amino)-1H-pyrazol-1-yl)acetonitrile] had a Kd of 10 to 50 nM. Turning to `COc1c(Oc2cnn3ccncc23)cnc2nc(Nc3cc(C4CC4)cn(C)c3=O)n(C)c12` [Example I-64, 5-cyclopropyl-3-((7-methoxy-1-methyl-6-(pyrazolo[1,5-a]pyrazin-3-yloxy)-1H-imidazo[4,5-b]pyridin-2-yl)amino)-1-methylpyridin-2(1H)-one], the Kd was < 10 nM.

As for `Cn1c(Nc2cc(C3CC3)cn(CCO)c2=O)nc2ncc(Oc3cnn4ccncc34)c(Cl)c21` [Example I-65, 3-((7-chloro-1-methyl-6-(pyrazolo[1,5-a]pyrazin-3-yloxy)-1H-imidazo[4,5-b]pyridin-2-yl)amino)-5-cyclopropyl-1-(2-hydroxyethyl)pyridin-2(1H)-one], the Kd was < 10 nM. For `Cn1c(Nc2cc(C(C)(C)C)n([C@H]3CCO[C@@H]3CO)n2)nc2ncc(Oc3cnn4ccncc34)c(Cl)c21` [Example I-66, ((2S,3S)-3-(5-(tert-butyl)-3-((7-chloro-1-methyl-6-(pyrazolo[1,5-a]pyrazin-3-yloxy)-1H-imidazo[4,5-b]pyridin-2-yl)amino)-1H-pyrazol-1-yl)tetrahydrofuran-2-yl)methanol], the equilibrium dissociation constant (Kd) is < 10 nM. The result for `COc1c(Oc2cnn3ccncc23)cnc2nc(Nc3cc(C4CC4)cn(C4CCOCC4)c3=O)n(C)c12` [Example I-67, 5-cyclopropyl-3-((7-methoxy-1-methyl-6-(pyrazolo[1,5-a]pyrazin-3-yloxy)-1H-imidazo[4,5-b]pyridin-2-yl)amino)-1-(tetrahydro-2H-pyran-4-yl)pyridin-2(1H)-one] reads < 10 nM; that for `Cn1c(Nc2cc(C3CC3)cn(C3CCOCC3)c2=O)nc2ncc(Oc3cnn4ccncc34)c(Cl)c21` [Example I-68, 3-((7-chloro-1-methyl-6-(pyrazolo[1,5-a]pyrazin-3-yloxy)-1H-imidazo[4,5-b]pyridin-2-yl)amino)-5-cyclopropyl-1-(tetrahydro-2H-pyran-4-yl)pyridin-2(1H)-one], < 10 nM; that for `Cn1c(Nc2cc(C3CC3)cn([C@H]3C[C@@H](O)C3)c2=O)nc2ncc(Oc3cnn4ccncc34)c(Cl)c21` [Example I-70, 3-((7-chloro-1-methyl-6-(pyrazolo[1,5-a]pyrazin-3-yloxy)-1H-imidazo[4,5-b]pyridin-2-yl)amino)-5-cyclopropyl-1-((1s,3s)-3-hydroxycyclobutyl)pyridin-2(1H)-one], < 10 nM.
